The results in this text go back to ChEMBL document CHEMBL1124894, “Synthesis and quantitative structure-activity relationships of diclofenac analogues” (J Med Chem, 1990).

The nature of data set [1]: Partition coefficient (logD7.4). As to conditions: octanol/water, pH 7.4.
Data set [2] in a line: Dissociation constant (pKa). The format is physicochemical.
For a further data set, the target named is T1, Cyclooxygenase (Bos taurus, UniProt O62664+O62698).
T1 sequence (O62664 whole entry): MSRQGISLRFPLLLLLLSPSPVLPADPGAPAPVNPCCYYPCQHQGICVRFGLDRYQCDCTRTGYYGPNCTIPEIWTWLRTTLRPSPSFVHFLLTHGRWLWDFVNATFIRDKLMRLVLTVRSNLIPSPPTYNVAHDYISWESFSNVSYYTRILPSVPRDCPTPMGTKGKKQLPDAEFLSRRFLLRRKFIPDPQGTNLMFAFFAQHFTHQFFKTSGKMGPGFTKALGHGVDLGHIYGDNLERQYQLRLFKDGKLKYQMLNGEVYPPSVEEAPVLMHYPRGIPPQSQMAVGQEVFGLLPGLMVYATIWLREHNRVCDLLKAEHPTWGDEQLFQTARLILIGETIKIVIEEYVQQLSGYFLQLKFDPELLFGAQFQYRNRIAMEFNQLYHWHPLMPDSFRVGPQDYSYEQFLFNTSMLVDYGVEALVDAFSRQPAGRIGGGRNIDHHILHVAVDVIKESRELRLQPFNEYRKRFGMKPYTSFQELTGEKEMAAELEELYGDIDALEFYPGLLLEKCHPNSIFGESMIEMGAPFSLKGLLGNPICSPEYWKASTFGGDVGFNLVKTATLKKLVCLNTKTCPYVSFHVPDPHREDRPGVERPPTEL
T1 sequence (O62698 whole entry): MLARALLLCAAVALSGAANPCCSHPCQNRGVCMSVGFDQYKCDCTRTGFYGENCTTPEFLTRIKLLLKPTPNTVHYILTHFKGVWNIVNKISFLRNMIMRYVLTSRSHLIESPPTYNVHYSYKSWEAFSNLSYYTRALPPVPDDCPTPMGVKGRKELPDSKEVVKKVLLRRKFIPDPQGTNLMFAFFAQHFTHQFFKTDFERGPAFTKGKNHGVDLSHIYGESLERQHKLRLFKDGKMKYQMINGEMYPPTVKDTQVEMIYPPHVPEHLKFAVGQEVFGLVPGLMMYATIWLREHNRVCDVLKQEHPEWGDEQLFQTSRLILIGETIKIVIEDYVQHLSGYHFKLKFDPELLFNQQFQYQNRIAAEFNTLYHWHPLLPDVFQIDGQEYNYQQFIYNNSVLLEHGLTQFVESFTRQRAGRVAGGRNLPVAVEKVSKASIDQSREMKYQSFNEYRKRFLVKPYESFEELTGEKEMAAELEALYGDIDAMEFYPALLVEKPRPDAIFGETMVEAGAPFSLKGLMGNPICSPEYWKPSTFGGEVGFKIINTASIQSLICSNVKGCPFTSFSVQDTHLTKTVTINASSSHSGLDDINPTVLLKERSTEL

Description for Cyclooxygenase: In vitro inhibition of bovine prostaglandin G/H synthase, using bovine seminal vesicle microsomal preparations; IC50 in umol/L
Description for Rattus norvegicus: Inhibition of inflammatory hind paw edema, induced by Mycobacterium butyricum in rats; ED40 in umol/kg po

As usually defined, the logD is lipophilicity at a set pH, counting ionised and neutral species. Usually pKa stands for the negative logarithm of the acid dissociation constant. High values mean a weaker acid or stronger base, low ones a stronger acid or weaker base. In turn, `O=C([O-])Cc1ccccc1Nc1c(Cl)cccc1Br.[Na+]` came in with a logD in data set [1] of 1.44. The “Log 1/ED40” value in the data set filed under Rattus norvegicus is listed as -0.14. This compound also registered a pKa in data set [2] of 4.2. The “log IC50” value at Cyclooxygenase came out at 0.28.

In data set [1], `O=C([O-])Cc1cc(F)ccc1Nc1c(Cl)cc(F)cc1Cl.[Na+]` yielded a logD of 1.62. Also, the “Log 1/ED40” value in the data set listed under Rattus norvegicus was determined as 0.25. Also, the “log IC50” value on Cyclooxygenase stood at 0.25.

With `Cc1cc(C)c(C)c(Nc2ccccc2CC(=O)O)c1C`, the logD in data set [1] amounted to 1.95. Besides, the “Log 1/ED40” value in the data set listed under Rattus norvegicus is -1.25. The compound also had a pKa in data set [2] of 4.2. For the same compound, at Cyclooxygenase, the “log IC50” value was determined as 0.78.

With `O=C(O)Cc1c(Br)cccc1Nc1c(Cl)cccc1Cl`, the logD in data set [1] came to 1.87. In the data set listed under Rattus norvegicus, the “Log 1/ED40” value is recorded as -3.43. Moreover, the “log IC50” value at Cyclooxygenase is given as 1.18.

As to `COc1ccc2c(c1)c(CC(=O)O)c(C)n2C(=O)c1ccc(Cl)cc1` [INDOMETHACIN], the log distribution coefficient (logD) in data set [1] was 1.

`O=C(O)Cc1ccccc1Nc1c(Cl)ccc(O)c1Cl` [3'-HYDROXY-DICLOFENAC] showed a logD in data set [1] of 0.72. Further, the “Log 1/ED40” value in the data set filed under Rattus norvegicus was -1.51. For the same compound, the “log IC50” value on Cyclooxygenase came out at 1.

In data set [1], `O=C(O)Cc1ccccc1Nc1ccc(Cl)cc1Cl` registered a logD of 1.33. Moreover, the “Log 1/ED40” value in the data set filed under Rattus norvegicus is -1.23. Besides, the “log IC50” value at Cyclooxygenase came out at 1.85.

`Cc1cccc(Nc2ccccc2CC(=O)O)c1Cl` showed a pH-dependent lipophilicity (logD) in data set [1] of 1.59. Further, in the data set filed under Rattus norvegicus, the “Log 1/ED40” value is recorded as -0.26. For the same compound, the “log IC50” value on Cyclooxygenase stood at 1.3.

As to `O=C(O)Cc1cc(O)ccc1Nc1c(Cl)cccc1Cl` [5-HYDROXY-DICLOFENAC], in data set [1], the logD was determined as 0.76. The “Log 1/ED40” value in the data set listed under Rattus norvegicus was -0.98. For the same compound, the pKa in data set [2] was 4.22. The “log IC50” value at Cyclooxygenase came to 3.35.

In the case of `Cc1ccc(Cl)c(Nc2ccccc2CC(=O)[O-])c1Cl.[Na+]`, the “Log 1/ED40” value in the data set filed under Rattus norvegicus is on record as -0.65.

In the case of `Cc1cccc(Nc2ccccc2CC(=O)O)c1C`, the logD in data set [1] is 1.03. In the data set filed under Rattus norvegicus, the “Log 1/ED40” value is recorded as -1.59. Also, the “log IC50” value at Cyclooxygenase was found to be 0.3.

On to `O=C([O-])Cc1ccccc1Nc1ccc(F)cc1F.[Na+]`, for which, in data set [1], the logD came to 0.55. Further, the “Log 1/ED40” value in the data set filed under Rattus norvegicus was -2.85. The “log IC50” value on Cyclooxygenase was 2.01.

In data set [1], `O=C([O-])Cc1ccccc1Nc1c(F)cccc1F.[Na+]` showed a pH-dependent lipophilicity (logD) of 0.26. The “Log 1/ED40” value in the data set filed under Rattus norvegicus is on record as -2.24. In addition, the pKa in data set [2] came to 4.09. For the same compound, at Cyclooxygenase, the “log IC50” value is reported as 2.36.

Regarding `O=C(O)Cc1ccccc1Nc1ccccc1`, the logD in data set [1] came to 0.19. Besides, the “Log 1/ED40” value in the data set filed under Rattus norvegicus was -2.94. In data set [2], this compound had a pKa of 4.1. Moreover, on Cyclooxygenase, the “log IC50” value is 2.46.

Consider `O=C(O)Cc1ccccc1Nc1c(Cl)cccc1I`, for which the logD in data set [1] was 1.64. Besides, the “Log 1/ED40” value in the data set listed under Rattus norvegicus is recorded as -0.11. The pKa in data set [2] turned out to be 4.24. For the same compound, at Cyclooxygenase, the “log IC50” value is 0.3.

`COc1ccc(Cl)c(Nc2ccccc2CC(=O)O)c1Cl` yielded a logD in data set [1] of 1.18. The “Log 1/ED40” value in the data set listed under Rattus norvegicus is reported as -0.96. The compound further returned a pKa in data set [2] of 3.95. Further, the “log IC50” value at Cyclooxygenase amounted to 1.04.

On to `O=C([O-])Cc1cc(Cl)ccc1Nc1c(Cl)cccc1Cl.[Na+]`, for which, in data set [1], the logD was 1.97. The “Log 1/ED40” value in the data set filed under Rattus norvegicus stood at 0.07. The “log IC50” value on Cyclooxygenase came to 0.1.

`O=C([O-])Cc1ccccc1Nc1c(Cl)cc(F)cc1Cl.[Na+]` returned a logD in data set [1] of 1.27. In addition, the “Log 1/ED40” value in the data set filed under Rattus norvegicus was -0.47. Further, at Cyclooxygenase, the “log IC50” value was 0.05.

Compound `O=C(O)Cc1ccccc1Nc1cc(Cl)cc(Cl)c1` showed a logD in data set [1] of 1.98. In addition, in the data set filed under Rattus norvegicus, the “Log 1/ED40” value is given as -2.23. Moreover, the pKa in data set [2] came to 4.31. Also, the “log IC50” value at Cyclooxygenase is listed as 1.9.

Regarding `O=C(O)Cc1cc(O)ccc1Nc1c(Cl)cc(O)cc1Cl` [4',5-DIHYDROXY-DICLOFENAC], the logD in data set [1] amounted to 0.27. Moreover, the “Log 1/ED40” value in the data set filed under Rattus norvegicus is recorded as -2.78. For the same compound, on Cyclooxygenase, the “log IC50” value is 3.04.

Regarding `COc1c(O)cc(Cl)c(Nc2ccccc2CC(=O)O)c1Cl`, in data set [1], the pH-dependent lipophilicity (logD) was found to be 0.51. Besides, in the data set listed under Rattus norvegicus, the “Log 1/ED40” value is on record as -2.47. Further, the “log IC50” value on Cyclooxygenase was found to be 1.86.

Take `O=C([O-])Cc1ccccc1Nc1c(F)cccc1Cl.[Na+]`: in data set [1], the logD turned out to be 0.56. The “Log 1/ED40” value in the data set listed under Rattus norvegicus is -0.8. In addition, at Cyclooxygenase, the “log IC50” value was determined as 1.75.

Take `Cc1cccc(C)c1Nc1ccccc1CC(=O)O`: the logD in data set [1] was determined as 1.21. Besides, the “Log 1/ED40” value in the data set filed under Rattus norvegicus is on record as -0.29. Moreover, in data set [2], the pKa was determined as 4.07. Also, the “log IC50” value at Cyclooxygenase was 0.78.

`O=C(O)Cc1ccccc1Nc1ccccc1Cl`: the logD in data set [1] came out at 0.91. Moreover, in the data set listed under Rattus norvegicus, the “Log 1/ED40” value is recorded as -1.76. For the same compound, the “log IC50” value at Cyclooxygenase came to 2.31.

In data set [1], `Cc1cc(C)c(C)c(Nc2ccc(Cl)cc2CC(=O)O)c1C` returned a logD of 2.93. Also, the “Log 1/ED40” value in the data set filed under Rattus norvegicus is -1.2. The “log IC50” value at Cyclooxygenase stood at 1.82.

`O=C([O-])Cc1c(O)cccc1Nc1c(Cl)cccc1Cl.[Na+]` gave a logD in data set [1] of 1.73. The compound further came in with a pKa in data set [2] of 4.48. On Cyclooxygenase, the “log IC50” value was 2.33.

In the case of `COc1cc(Cl)c(Nc2ccccc2CC(=O)O)c(Cl)c1O` [3'-HYDROXY-4'-METHOXY-DICLOFENAC], the logD in data set [1] is 0.25. Further, the “Log 1/ED40” value in the data set listed under Rattus norvegicus is recorded as -2.47. For the same compound, in data set [2], the pKa worked out at 4.13. Besides, the “log IC50” value on Cyclooxygenase was determined as 2.47.

With `O=C(O)Cc1ccccc1Nc1cccc(Cl)c1Cl`, the logD in data set [1] amounted to 1.66. The compound further returned a pKa in data set [2] of 4.2. Moreover, at Cyclooxygenase, the “log IC50” value came out at 1.

The compound `COc1cc(Cl)c(Nc2ccccc2CC(=O)O)c(Cl)c1` gave a log distribution coefficient (logD) in data set [1] of 1.24. Besides, in the data set listed under Rattus norvegicus, the “Log 1/ED40” value is -0.49. The compound also showed a pKa in data set [2] of 4.2. At Cyclooxygenase, the “log IC50” value came to 0.

Regarding `O=C([O-])Cc1cc(F)ccc1Nc1c(Cl)cccc1Cl.[Na+]`, the logD in data set [1] came out at 1.48. Besides, the “Log 1/ED40” value in the data set listed under Rattus norvegicus amounted to 0.05. The compound further showed a pKa in data set [2] of 4.02. Besides, the “log IC50” value at Cyclooxygenase came to 0.13.

In turn, `O=C(O)Cc1ccccc1Nc1cc(Cl)ccc1Cl` returned a logD in data set [1] of 1.64. Besides, in the data set listed under Rattus norvegicus, the “Log 1/ED40” value is -1.01. For the same compound, in data set [2], the pKa stood at 4.1. Besides, at Cyclooxygenase, the “log IC50” value is listed as 2.

In data set [1], `Cc1c(Cl)cccc1Nc1ccccc1CC(=O)O` gave a logD of 1.54. The “Log 1/ED40” value in the data set filed under Rattus norvegicus was -0.86. This compound also returned a pKa in data set [2] of 4.3. In addition, the “log IC50” value at Cyclooxygenase was determined as 1.04.

Regarding `Cc1cccc(Cl)c1Nc1ccccc1CC(=O)O`, in data set [1], the logD was found to be 1.17. In addition, the “Log 1/ED40” value in the data set listed under Rattus norvegicus was -0.74. Further, the pKa in data set [2] was found to be 4.2. The “log IC50” value at Cyclooxygenase stood at 0.

As for `CCc1cccc(CC)c1Nc1ccccc1CC(=O)O`, in data set [1], the logD came to 1.91. Further, the “Log 1/ED40” value in the data set listed under Rattus norvegicus is on record as -1.55. Moreover, the “log IC50” value on Cyclooxygenase turned out to be 1.83.

In turn, `O=C(O)Cc1ccccc1Nc1ccc(Cl)c(Cl)c1` showed a logD in data set [1] of 1.8. The “Log 1/ED40” value in the data set filed under Rattus norvegicus was -2.53. In data set [2], this compound yielded a pKa of 4.3. In addition, on Cyclooxygenase, the “log IC50” value is given as 2.15.

In data set [1], `O=C(O)Cc1ccccc1Nc1c(Cl)cc(O)cc1Cl` [4'-HYDROXY-DICLOFENAC] registered a pH-dependent lipophilicity (logD) of 0.7. Further, the “Log 1/ED40” value in the data set listed under Rattus norvegicus is reported as -0.98. For the same compound, in data set [2], the pKa worked out at 4.4. Further, the “log IC50” value on Cyclooxygenase is 2.15.
